Structures can show the parent of a compound that is named as a salt.
Legend:
CREB = CREB / p-CREB protein expression in hippocampus (immunoblot); format: in vivo, mice; conditions: 21 d
Source text: (§1) There was no significant difference in the expression of p-CREB protein among the groups.

[1] = Mass spectrometry imaging of mouse brain; format: in vivo, mice; conditions: mass spectrometry imaging, 21 d
Arg1 = Arg1 protein expression in hippocampus (immunoblot); format: in vivo, mice; conditions: 10 mg/kg, 21 d, vs model group
Source text: as §1

[2] = test system: CORT-induced Kunming mouse model; assay: In vivo antidepressant study of BEL: body weight, diet, water intake; parameters: species or system Kunming (KM) mice; conditions: 21 d, CORT-induced mice
Protocol: After one week of adaptive feeding of experimental mice, 10 mice were randomly selected from 150 mice as a normal group, and the mice in the normal group were not treated in any way. […] The dosing volume was changed once a week according to the weight of the mice, and the mice were subcutaneously administered in the groin of the hind limb between 9:00 and 11:00 am every day. During the modeling, the weight, diet, and water intake of the mice were recorded, and the relevant data were counted once a week until the modeling was completed. During the modeling, the mice were subjected to behavioral analysis. 4 behavioral test designs were designed: FST, TST, SPT, and NSFT. […] There were 5 mice/cage in the normal group and 5 mice/cage in the model group. […] Behavioral experiments were conducted once a week, and the serum 5-HT and CORT levels of mice were recorded. The results were shown in Tables 3 to 5 and FIG. 12A to FIG. 14B.

mice = assay: Acute toxicity study of BEL in mice; format: in vivo
CORT = assay: Serum CORT level, BEL study; format: in vivo; conditions: CORT-induced mice
Protocol: (§2) Behavioral experiments were conducted once a week, and the serum 5-HT and CORT levels of mice were recorded.

5-HT1A = 5-HT1A protein expression in hippocampus (immunoblot); format: in vivo, mice; conditions: 10 and 20 mg/kg, 21 d, vs model group
Source text: as §1

5-HT = assay: Serum 5-HT level, BEL study; format: in vivo; conditions: CORT-induced mice
Protocol: as §2

[3] = test system: neurons in the hippocampus of mice; assay: H & E staining and immunofluorescence histochemistry of hippocampus; format: in vivo; conditions: 21 d of administration, CORT-induced mice
Source text: [0170](2) After 21 d of drug administration, the hippocampus of mice in each treatment group was stained with H & E, and the proliferation of neurons in the hippocampus of mice was detected by immunofluorescence histochemistry.
(§3) Compared with the normal group, the hippocampus structure of the model group mice was abnormal, the cells were wrinkled and then irregularly arranged. After administration, the hippocampus structure returned to normal and the cells were arranged regularly. […] [0172](3) After 21 d of drug administration, brain tissues of mice in each treatment group were collected for Golgi staining.

HT22 cells = assay: CORT-induced HT22 cell viability, BEL; format: cell-based; conditions: Mus musculus, HT-22, 250 μM CORT, 24 h, model = 100.00
hippocampal neurons = assay: Golgi staining of brain tissue: neuron dendrite length and dendritic spine density; format: in vivo, mice; conditions: 21 d; for Neuron dendrite length, Maximum / Neuron dendrite length, Mean / Neuron dendrite length, Minimum: mouse hippocampus
Source text: as §3
• (4) After 21 d of drug administration, the dendritic spine density of neurons in the hippocampus of mice was counted. […] The effect intensity was as follows: 10 mg/kg BEL treatment group >20 mg/kg BEL treatment group BEL 40 mg/kg BEL treatment group.

5-HT2A = 5-HT2A protein expression in hippocampus (immunoblot); format: in vivo, mice; conditions: 21 d, vs model group
Source text: as §1

[4] = test system: CORT-induced Kunming mouse model; assay: In vivo antidepressant study of BEL: behavioral tests (FST, TST, SPT, NSFT); parameters: species or system Kunming (KM) mice; conditions: CORT-induced mice
[5] = serum, 214 mg/kg gavage, 3 times within 24 h

## COc1cc(O)c2c(=O)c3c(O)ccc(O)c3oc2c1 [BEL, bellidifolin]
CREB; 10 mg/kg, reduced level in model group
  CREB protein level in hippocampus: could significantly reverse this phenomenon
CREB; 40 mg/kg, vs model group
  Phosphorylation level of CREB in hippocampus: significantly decreased
[1]
  Distribution in brain: mainly distributed in the hypothalamus, amygdala, hippocampus, and cortex of mice
Arg1
  Expression of Arg1 protein in hippocampus: could significantly reverse the decrease in Arg1 expression
[2]; 10 mg/kg/d gavage
  Body weight: 37.19 ± 3.35 g
  Diet: 4.02 ± 0.03 g/day
  Water intake: 4.72 ± 0.42 g/day
[2]; 20 mg/kg/d gavage
  Body weight: 37.33 ± 3.30 g
  Diet: 4.48 ± 0.45 g/day
  Water intake: 4.87 ± 0.99 g/day
[2]; 40 mg/kg/d gavage
  Body weight: 36.31 ± 3.72 g
  Diet: 5.14 ± 1.00 g/day
  Water intake: 6.82 ± 0.45 g/day
mice; 214 mg/kg gavage 3 times within 24 h, subsequent 14-d observation
  Observation during 14-d period: did not show any abnormalities
mice; 214 mg/kg gavage, 3 times within 24 h
  Toxic side effects (weight, brain, liver, kidneys): no toxic side effects on mice
mice; 214 mg/kg gavage, 3 times within 24 h, 14 d observation
  Weight: 39.18 ± 3.94 g
mice; 214 mg/kg gavage, 20 min after the second treatment
  Observation after treatment: slight tremors, which disappeared after 2 min
mice; [5]
  ALT: 26.85 ± 6.22 U/L
  AST: 48.73 ± 4.15 U/L
  CRE: 23.20 ± 5.69 µmol/L
CORT; 10 mg/kg/d gavage
  Serum CORT: 107.08 ± 8.16 ng/mL
CORT; 20 mg/kg/d gavage
  Serum CORT: 111.82 ± 8.27 ng/mL
CORT; 40 mg/kg/d gavage
  Serum CORT: 93.63 ± 11.48 ng/mL
5-HT1A
  Expression of 5-HT1A protein in hippocampus: could significantly promote the expression of 5-HT1A protein
5-HT; 10 mg/kg/d gavage
  Serum 5-HT: 134.29 ± 12.34 ng/mL
5-HT; 20 mg/kg/d gavage
  Serum 5-HT: 216.11 ± 3.34 ng/mL
5-HT; 40 mg/kg/d gavage
  Serum 5-HT: 133.42 ± 30.76 ng/mL
[3]
  Proliferation of neurons in the hippocampus (immunohistofluorescence): could promote the proliferation of neurons in the mouse hippocampus
HT22 cells
  viability at 0.0625 µM: 103 ± 5.03%
  viability at 0.125 µM: 107 ± 2.64%
  viability at 0.25 µM: 115 ± 3.93%
  viability at 0.5 µM: 120 ± 3.97%
  viability at 1 µM: 139 ± 5.34%
Hippocampal neurons; 10 mg/kg/d gavage
  Neuron dendrite length, Maximum: 1853.00 μm
  Neuron dendrite length, Mean: 75.66 ± 60.55 μm
  Neuron dendrite length, Minimum: 5.86 μm
Hippocampal neurons; 20 mg/kg/d gavage
  Neuron dendrite length, Maximum: 2297.92 μm
  Neuron dendrite length, Mean: 140.64 ± 73.11 μm
  Neuron dendrite length, Minimum: 6.32 μm
Hippocampal neurons; 40 mg/kg/d gavage
  Neuron dendrite length, Maximum: 194.06 μm
  Neuron dendrite length, Mean: 51.73 ± 33.73 μm
  Neuron dendrite length, Minimum: 6.04 μm
Hippocampal neurons; 10, 20 and 40 mg/kg, vs model group
  Dendritic spine density of hippocampal neurons: could significantly increase the dendritic spine density
Hippocampal neurons; 10 and 20 mg/kg
  Number and length of neurons in the hippocampus (Golgi staining): increased the number of neurons and the length of neurons
5-HT2A
  Expression of 5-HT2A protein in hippocampus: had no effect on the expression of 5-HT2A
[4]; 10 mg/kg/d gavage
  FST immobility time: 145.00 ± 36.40 s
  NSFT start time of eating: 42.75 ± 31.56 s
  SPT sugar water preference: 13.72 ± 0.30 %
  TST immobility time: 27.50 ± 16.05 s
[4]; 20 mg/kg/d gavage
  FST immobility time: 127.14 ± 36.38 s
  NSFT start time of eating: 57.14 ± 35.77 s
  SPT sugar water preference: 12.41 ± 3.32%
  TST immobility time: 47.22 ± 35.19 s
[4]; 40 mg/kg/d gavage
  FST immobility time: 193.33 ± 25.98 s
  NSFT start time of eating: 38.78 ± 22.73 s
  SPT sugar water preference: 8.75 ± 0.18%
  TST immobility time: 98.75 ± 66.35 s

## CNCCC(Oc1ccc(C(F)(F)F)cc1)c1ccccc1 (stereo not shown) [Flu, fluoxetine hydrochloride, reference compound]
[2]; 20 mg/kg/d gavage
  Body weight: 27.03 ± 1.74 g
  Diet: 3.90 ± 0.39 g/day
  Water intake: 4.00 ± 0.97 g/day
CORT; 20 mg/kg/d gavage
  Serum CORT: 152.77 ± 11.25 ng/mL
HT22 cells
  viability at 0.0625 µM: 103 ± 4.06%
  viability at 0.125 µM: 108 ± 3.95%
  viability at 0.25 µM: 111 ± 1.64%
  viability at 0.5 µM: 112 ± 2.77%
  viability at 1 µM: 123 ± 8.39%
Hippocampal neurons; 20 mg/kg/d gavage
  Neuron dendrite length, Maximum: 180.19 μm
  Neuron dendrite length, Mean: 54.65 ± 32.76 μm
  Neuron dendrite length, Minimum: 6.57 μm
[4]; 20 mg/kg/d gavage
  FST immobility time: 178.50 ± 36.52 s
  NSFT start time of eating: 84.50 ± 32.69 s
  SPT sugar water preference: 13.28 ± 0.56 %
  TST immobility time: 71.43 ± 40.80 s

## CN(C)CCCN1c2ccccc2CCc2ccccc21 [Imi, imipramine hydrochloride, reference compound]
[2]; 20 mg/kg/d gavage
  Body weight: 34.41 ± 1.80 g
  Diet: 4.38 ± 0.45 g/day
  Water intake: 4.92 ± 0.40 g/day
CORT; 20 mg/kg/d gavage
  Serum CORT: 143.19 ± 12.30 ng/mL
5-HT; 20 mg/kg/d gavage
  Serum 5-HT: 130.24 ± 13.65 ng/mL
Hippocampal neurons; 20 mg/kg/d gavage
  Neuron dendrite length, Maximum: 172.10 μm
  Neuron dendrite length, Mean: 37.66 ± 25.07 μm
  Neuron dendrite length, Minimum: 5.95 μm
[4]; 20 mg/kg/d gavage
  FST immobility time: 163.00 ± 38.09 s
  NSFT start time of eating: 65.11 ± 32.90 s
  SPT sugar water preference: 8.32 ± 0.12%
  TST immobility time: 76.43 ± 46.52 s

— patent US20250235496A1, “USE OF BELLIDIFOLIN (BEL) AND/OR BEL-CONTAINING EXTRACT IN PREPARATION OF ANTIDEPRESSANT PRODUCT” (priority 2024, published 2025)
